Assay results as given in US20170369414A1, “O-Quinone Compounds as Agents Neutralising Nitric Oxide” (Institut des Substances Végétales, priority 2015, published 2017).

Assay: Method for evaluating the neutralization of nitric oxide (amperometric probe, real time)
Settings: phosphate buffer pH 7.4, 25° C., between T1 and T2=T1+30 s, corrected for solvent control
Method: For this, the nitric oxide is prepared in a separated container by achieving reduction of sodium nitrite with ferrous sulfate and carry away with a nitrogen gas stream into another container containing the product to be tested in solution in a buffer. In this solution, is placed an amperometric probe which measures in real time the current produced by the presence of nitric oxide in solution.
Nitric oxide is prepared extemporaneously in a container A, obturated with a flexible polymeric plug through which pass an entering tubing and an exiting tubing, with an inner diameter comprised between 50 μm and 300 μm, but particularly of 100 μm (cf. FIG. 1), with a volume comprised between 10 ml and 100 ml, but particularly of 30 ml, by adding a volume comprised between 0.1 and 2 ml, but particularly of 0.5 ml of an aqueous solution of sodium nitrite (NaNO2, ref. Sigma-Aldrich 237213) at a concentration comprised between 0.10% and 2.00% but particularly of 0.70%, at a volume comprised between 5 ml and 80 ml of the following aqueous solution:
The container B in which is measured the nitric oxide is a container opaque to light, with a double jacket allowing circulation of water maintaining the temperature at 25° C., obturated with a plug through which pass the tubing stemming from the container A and an exhaust tubing (cf. FIG. 1) with a volume comprised between 10 ml and 100 ml, preferably 30 ml which receives a volume comprised between 5 ml and 80 ml, preferably 20 ml, of an aqueous solution of phosphate buffer at pH 7.4.
Once they are mixed, the solutions are stirred for the whole period of the measurement with a magnetic stirrer, in container A and in container B.
Nitrogen gas is admitted at a flow rate comprised between 20 ml/min and 120 ml/min, preferably 80 ml/min in the bottom of the container A. The nitrogen thereby carries away the nitric oxide through the exiting tubing of container A as far as into container B where it is measured with a device provided for this purpose equipped with an amperometric probe provided with a specific membrane (apparatus of ref. TBR 1025 from World Precision Instruments, probe ISO-NOP). The probe thereby delivers a variable current between 10 and 1,000 nA proportional to the concentration of nitric oxide in the tested solution, of the order of magnitude of μM. The electric current produced by the probe under the influence of nitric oxide is recorded with a suitable device.
Before any measurement, the probe is calibrated by measuring the current produced by releasing known increasing amounts of nitric oxide. It is thus checked that there exists a linear relationship between the electric current produced by the probe and the molar concentration of nitric oxide and the correspondence between this electric current and the molar concentration of nitric oxide is determined. For this, 20 ml of the following aqueous solution is placed in the container B disconnected from the container A during the calibration period:
50 μl, 100 μl, 150 μl and 200 μl of a solution of sodium nitrite (NaNO2, ref. Sigma-Aldrich 237213) are then successively added to a concentration of 360 μM.
The curve giving the correspondence between the nitric oxide concentration in the reaction medium and the electric intensity produced by the probe expressed in nA is plotted for each addition of the nitric oxide solution.
During a typical measurement, 20 ml of the ferrous sulfate solution are placed in the container A and 20 ml of phosphate buffer at pH 7.4 are placed in the container B. In the container A, nitrogen gas is admitted for 10 mins, which passes in transit towards the container B, in order to remove the dissolved oxygen present in the solutions of the containers A and B. After these 10 mins, the recording of the measurement of nitric oxide is launched.
At time T0, the sodium nitrite solution is injected into the container A through the flexible polymeric plug by means of a syringe equipped with a needle.

Compound: O=c1cc(-c2ccc(O)c(O)c2)oc2cc(O)cc(O)c12 [Luteolin]
- E, neutralization effect of nitric oxide (nitric oxide neutralized per second and per mg of product): 0.174 µM/s/mg

Compound: O=C(/C=C/c1ccc(O)c(O)c1)O[C@H](Cc1ccc(O)c(O)c1)C(=O)O [Rosmarinic acid]
- E, neutralization effect of nitric oxide (nitric oxide neutralized per second and per mg of product): 0.043 µM/s/mg

Compound: C[C@@H]1O[C@@H](O[C@@H]2[C@@H](O)[C@H](OCCc3ccc(O)c(O)c3)O[C@H](CO)[C@H]2OC(=O)/C=C/c2ccc(O)c(O)c2)[C@H](O)[C@H](O)[C@H]1O [Verbascoside]
- E, neutralization effect of nitric oxide (nitric oxide neutralized per second and per mg of product): 0.058 µM/s/mg

Compound: O=C(O)/C=C/c1ccc(O)c(O)c1 [Caffeic acid]
- E, neutralization effect of nitric oxide (nitric oxide neutralized per second and per mg of product): 0.957 µM/s/mg

Compound: O=C(O)/C=C\C1=CC(=O)C(=O)C=C1 [caffeoyl-quinone, ortho-quinone of caffeic acid]
- E, neutralization effect of nitric oxide (nitric oxide neutralized per second and per mg of product): 24.36 µM/s/mg

Compound: O.O.O=c1c(O)c(-c2ccc(O)c(O)c2)oc2cc(O)cc(O)c12 [Quercetin, Quercetin dihydrate]
- E, neutralization effect of nitric oxide (nitric oxide neutralized per second and per mg of product): 0.087 µM/s/mg

Compound: (+) catechin hydrate
- E, neutralization effect of nitric oxide (nitric oxide neutralized per second and per mg of product): 0.13 µM/s/mg

Compound: O=C(O)/C=C/c1ccc(O)cc1 [p-coumaric acid]
- E, neutralization effect of nitric oxide (nitric oxide neutralized per second and per mg of product): 0.13 µM/s/mg
